Assay results taken from ChEMBL document CHEMBL1149940, “Conformationally constrained analogues of diacylglycerol. 6. Changes in PK-C binding affinity for 3-O-acyl-2-deoxy-L-ribonolactones bearing different acyl chains” (Bioorg Med Chem Lett, 1994).

Key:
[1] = species on record: Mus musculus; test: Inhibition of [3H]phorbol-12,13-dibutyrate binding to mouse brain protein kinase C at 100 ug/mL
[2] = Logarithm of water solubility was reported; assay type: ADME; details: buffer
[3] = Inhibition of [3H]phorbol-12,13-dibutyrate binding to mouse brain protein kinase C
[4] = Inhibition of [3H]phorbol-12,13-dibutyrate binding to mouse brain protein kinase C (calculated value from percent inhibition at 100 ug/mL)
[5] = Inhibition of [3H]phorbol-12,13-dibutyrate binding to mouse brain protein kinase C (No inhibition at >1700 uM)

| Structure (SMILES) | inhibition [1] [%] | log S [2] [M/m3] | Ki [3] [µM] | also measured |
| --- | --- | --- | --- | --- |
| COc1ccc(C(=O)O[C@H]2CC(=O)O[C@@H]2CO)cc1 | 2 |  |  |  |
| CCc1ccc(C(=O)O[C@H]2CC(=O)O[C@@H]2CO)cc1 | 21 |  |  |  |
| CCCCCC(=O)O[C@@H]1CC(=O)O[C@H]1CO |  | 1.54 | 188 |  |
| CCCCCCCC/C=C/CCCCCCCC(=O)O[C@@H]1CC(=O)O[C@H]1CO |  | -3.9 | 1.33 |  |
| CCCCCCCc1ccc(C(=O)O[C@H]2CC(=O)O[C@@H]2CO)cc1 |  |  | 8.9 |  |
| O=C(Cc1ccccc1)O[C@H]1CC(=O)O[C@@H]1CO | 29 |  |  |  |
| CCCCCCCCCCCCCC(=O)O[C@@H]1CC(=O)O[C@H]1CO |  | -2.62 | 2.53 |  |
| O=C1C[C@@H](OC(=O)Cc2ccccc2)[C@H](CO)O1 |  | 1.09 |  | Ki [4]: 222 µM |
| CCCCCCCCCCCCCC(=O)O[C@H]1CC(=O)O[C@@H]1CO |  |  | 5.3 |  |
| CCCCCCCCCCC(CCCC)CCCCCCC(=O)O[C@@H]1CC(=O)O[C@H]1CO (some centres undefined) |  | -6.46 | 2.45 |  |
| O=C(/C=C/c1ccccc1)O[C@H]1CC(=O)O[C@@H]1CO | 18.5 |  |  |  |
| CCCCCCCCCC(=O)O[C@@H]1CC(=O)O[C@H]1CO |  | -0.54 | 4.06 |  |
| CCCCCCCCCCC(C)CCCCCCC(=O)O[C@@H]1CC(=O)O[C@H]1CO (some centres undefined) |  | -4.9 | 2.39 |  |
| CC(=O)O[C@@H]1CC(=O)O[C@H]1CO |  | 3.62 |  | Ki [5]: Not Active |
| O=C1C[C@H](OC(=O)c2ccc(-c3ccccc3)cc2)[C@@H](CO)O1 | 6.5 |  |  |  |
| CCCCCCCCCCCCCCCCCC(=O)O[C@@H]1CC(=O)O[C@H]1CO |  | -4.7 | 8.69 |  |
| O=C1C[C@H](OC(=O)c2ccc3ccccc3c2)[C@@H](CO)O1 | 28 |  |  |  |
| O=C1C[C@@H](OC(=O)c2cccc3ccccc23)[C@H](CO)O1 |  | -0.18 | 23.5 |  |
| CCCCCCCc1ccc(C(=O)O[C@@H]2CC(=O)O[C@H]2CO)cc1 |  | -2.05 | 3.2 |  |
| O=C1C[C@H](OC(=O)c2ccccc2)[C@@H](CO)O1 | 9.5 |  |  |  |
| O=C1C[C@H](OC(=O)c2cccc3ccccc23)[C@@H](CO)O1 | 30 |  |  |  |
| CCCCCCCCCCC(CCCCCCC(=O)O[C@@H]1CC(=O)O[C@H]1CO)c1ccccc1 (some centres undefined) |  | -6.91 | 1.21 |  |
